Test system: DEN-1 virus strain FGA/NA d1d
Format: cell-based
Details: THP/DC-SIGN cells, m.o.i. 5 AP61FFU/cell
Protocol: Prior to infection, THP-1/DC/SIGN cells were incubated with either Mab 9D12 (dilution 1:50), Mab BD12.5 (20 μg/ml), Mab 1B10.2.6 (20 μg/ml), EDTA (5 mM), mannan (20 μg/ml), or mock-treated (control). Treated cells were infected with DEN-1 virus strain FGA/NA dld (5 AP61FFU/cell) in the presence of reagents for 2 hrs. Viral antigens were detected by indirect immunofluorescence as described in the legend of FIG. 1. The percentages of infected cells 48 h post-infection are indicated. Values represent the mean of triplicate assays±SD.
Cells were washed once with RPMI 1640, incubated with highly purified virus in RPMI 1640 supplemented with 0.2% bovine serum albumine (BSA, pH 7.5) (Sigma) for 2 hrs at 37° C. and placed into fresh media supplemented with 2% FCS, 2 mM L-glutamine and antibiotics Peni/Strepto at 37° C. for 40 hrs.
Adherent cells were incubated either with EDTA (5 mM), mannan (20 μg/ml), anti-DC-SIGN Mab 1B10.2.6 (20 μg/mi), anti-LMCV Mab 12.5 (isotype control, 20 μg/ml), or DEN E-specific Mab 9D12 (dilution 1:50) in RPMI 1640 supplemented with 0.2% BSA for 20 min at room temperature before binding the virus for 2 hrs. Two hours after infection, cells were washed with RPMI 1640 and incubated with RMPI 1640 2% FCS for 40 hrs. […]

Compound | infectivity of DEN-1 virus after preincubation of cells (EDTA 5 mM) | reduction of FGA/NA d1d infectivity (mannan 20 μg/ml) [%]
O=C(O)CN(CCN(CC(=O)O)CC(=O)O)CC(=O)O [EDTA] | essentially abolished | 
mannan |  | 75

— patent publication US20060134100A1, “Dc-sign blockers and their use for preventing or treating viral infections” (priority 2002, published 2006)
